{
  "source": "paper PMC10017700",
  "about": "“The SMARCA4^R1157W mutation facilitates chromatin remodeling and confers PRMT1/SMARCA4 inhibitors sensitivity in colorectal cancer” (NPJ Precision Oncology, 2023)",
  "key": {"[1]": {"system": "SMARCA4-R1157W mutant HCT116 cell line-derived xenograft", "assay": "CDX mouse model, SMARCA4-R1157W", "assay_type": "in vivo, BALB/c female nude mice", "conditions": "oral, 14 days", "protocol": "(§1) To establish cell line-derived xenograft (CDX) mouse models, 6-week-old BALB/c female nude mice were obtained from the Model Animal Research Center of Nanjing University (Nanjing, China). All animal experimental procedures were approved by the Animal Ethical and Welfare Committee of Nanjing University. Approximately 5 × 10^6 SMARCA4 wild-type or R1157W mutant HCT116 cells were injected subcutaneously into the right flank of each mouse. The mice were randomized into 4 groups (6 mice/group) when the tumor volume reached approximately 80 mm^3 (volume = 0.52 × length × width^2), at which point drug dosing every day was initiated. GSK-PTi (GSK3368715, HY-128717A, MCE)[32] and BBAi-1 (BRM/BRG1 ATP inhibitor-1, HY-119374, MCE)[33] were dissolved in 10% DMSO, 90% saline (containing 20% SBE-β-CD). GSK-PTi (25 mg/kg) and BBAi-1 (2.5 mg/kg) were administered orally. Body weight and tumor volume of the mice were measured every two days. Treatments were continued for 14 days, after which all mice were euthanized for analysis. Tumor tissues were weighed and prepared for immunoblotting or immunohistochemical staining. Tumor growth inhibition (TGI) rate was measured using the formula: TGI (%) = [1−(Vt−V0 in treated group)/Vt−V0 in vehicle group)]×100 where Vt is the volume on each day and V0 is the volume at the beginning of the treatment."}, "[2]": {"system": "SMARCA4-WT HCT116 cell line-derived xenograft", "assay": "CDX mouse model, SMARCA4-WT", "assay_type": "in vivo, BALB/c female nude mice", "conditions": "oral, 14 days", "protocol": "as §1"}, "SMARCA2 and SMARCA4": {"system": "SMARCA2 and SMARCA4", "conditions": "SMARCA bromodomain inhibitor; cited from earlier work", "text": "However, SMARCA2, another core subunit of the SWI/SNF complex with ATPase activity, also harbors a highly conserved HELICc domain (Supplementary Fig. 7a). […] It would be interesting to test whether other HELICc domain-containi ..."}, "[3]": {"system": "ATP (ATPase activity of SMARCA4)", "assay": "ATPase kinetic assay (ATPase activity assay kit)", "assay_type": "biochemical", "protocol": "An ATPase activity assay kit (#MAK113, Sigma,) was used to measure the Kinetic parameters (Vmax, Km, and Kcat) of SMARCA4 on ATP. In detail, SMARCA4-WT and -R1157W mutant proteins were incubated with saturating amounts of plasmid DNA and various concentrations of ATP. Reaction rates were determined by quantitating the fraction of ATP hydrolyzed at multiple time points. Kinetic parameters were determined by fitting the initial rate data to the Michaelis–Menten equation using the Origin software. All reactions were performed in triplicate."}, "[4]": {"system": "ATP (ATPase activity of SMARCA4)", "assay": "ATPase assay, γ-32P ATP thin-layer chromatography", "assay_type": "biochemical", "conditions": "in the presence of DNA, TLC, 30 °C, 0-90 min, Fig. 4b", "protocol": "The ATPase assays were performed as described previously with modifications. The 20 μl reactions contained 50 mM Tris (pH 7.5), 50 mM NaCl, 8 mM MgCl2, 0.5 mM PMSF, 2 mM ATP, 2 mM DTT, and 1 μg of a 1 kb DNA fragment. The reaction was initiated by adding 1 μl of 10 mCi/ml [γ-^32P] ATP (3000 Ci/mmole; PerkinElmer) and 1 μg of SMARCA4 wild-type or mutant proteins. The reactions were then incubated at 30 °C for the indicated times (0, 15, 30, 60, and 90 min) and were stopped by the addition of 5 μl of 500 mM EDTA. One microliter of the reaction mixture was spotted onto PEI-cellulose TLC plates (Merck), and chromatography was run in 0.5 M LiCl, 1 M formic acid. The ratio of inorganic phosphate to ATP at each time point was quantified using a Molecular Dynamics Phosphorimager (Amersham Biosciences) and ImageQuant TL software."}, "mononucleosomes": {"system": "mononucleosomes", "assay": "Nucleosome sliding assay", "assay_type": "biochemical", "conditions": "60 or 90 min, 30 °C, 2 mM ATP, Fig. 4c", "protocol": "The nucleosome sliding assay was performed as previously described with several modifications[41],[47]. A 255 bp DNA template from the Widom 601 positioning sequence[48] was assembled into mononucleosomes by the “salt jump” method in the presence of core histones isolated from HeLa cells. Mononucleomes (100 ng DNA) were incubated with wild-type or mutant SMARCA4 proteins (100 ng) in 40 μl reactions containing 20 mM HEPES–NaOH (pH 7.9), 50 mM MgCl2, 1 mM DTT, 0.1 mM PMSF, 0.1 mg/ml BSA, 3% glycerol, 0.02% NP-40, 0.02% Triton X-100, 2 mM ATP at 30 °C for 0, 30, 60, or 90 min. Reactions were quenched by the addition of 20 mM EDTA and 1% glycerol. Samples were resolved by 6% native polyacrylamide/0.5×TBE gel electrophoresis and visualized by SYBR green staining (Invitrogen)."}, "[5]": {"conditions": "GSK-PTi 25 mg/kg and/or BBAi-1 2.5 mg/kg, daily, 6 mice/group"}, "[6]": {"conditions": "saturating plasmid DNA, various ATP concentrations, Michaelis–Menten fit, triplicate, mean ± SD"}, "[7]": {"conditions": "over 2-fold higher, Supplementary Fig. 5c, d"}},
  "data": [
    {"compound": "CCOCC1(COCC)CCC(c2[nH]ncc2CN(C)CCNC)CC1", "note": "[GSK-PTi]", "values": [
      {"measurement": "tumor growth inhibition (TGI) rate", "setting": "[1]; [5]", "result": 45.3, "unit": "%"},
      {"measurement": "therapeutic effect of daily single treatment (versus SMARCA4-WT CDX)", "setting": "[1]", "result": "better therapeutic effect"},
      {"measurement": "effect in SMARCA4-R1157W mutant versus SMARCA4-WT model mice", "setting": "[1]; daily, comparison of the two model mouse groups", "result": "no statistically significant differences"},
      {"measurement": "tumor growth inhibition (TGI) rate", "setting": "[2]; [5]", "result": 23, "unit": "%"},
      {"measurement": "therapeutic effect of daily single treatment", "setting": "[2]", "result": "moderate therapeutic effect"}
    ]},
    {"compound": "O=C(/C=C/N1C[C@H]2C[C@@H]1CN2c1ccccn1)c1ccccc1O", "note": "[PFI-3]", "values": [
      {"measurement": "differentiation between SMARCA2 and SMARCA4", "setting": "SMARCA2 and SMARCA4", "result": "could not differentiate between SMARCA2 and SMARCA4"}
    ]},
    {"compound": "SMARCA4-R1157W: R1157W mutant SMARCA4 protein", "values": [
      {"measurement": "Kcat / Km", "setting": "[3]; saturating plasmid DNA, various ATP concentrations", "result": 17.47, "unit": "M⁻¹ s⁻¹"},
      {"measurement": "Kcat", "setting": "[3]; [6]", "result": "0.00242 ± 6.7e-05", "unit": "s⁻¹"},
      {"measurement": "Km", "setting": "[3]; [6]", "result": "138 ± 17.4", "unit": "µM"},
      {"measurement": "Vmax", "setting": "[3]; [6]", "result": "241.6 ± 8.16", "unit": "mM/min/mg"},
      {"measurement": "ATPase activity compared to SMARCA4-WT", "setting": "[4]", "result": "significantly augmented"},
      {"measurement": "lateral sliding of centrally positioned nucleosomes compared to SMARCA4-WT", "setting": "mononucleosomes", "result": "further catalyzed lateral sliding of centrally positioned nucleosomes"}
    ]},
    {"compound": "SMARCA4-WT mutant: as printed; probably misprint for SMARCA4-R1157W mutant protein", "values": [
      {"measurement": "Kcat relative to SMARCA4-WT protein", "setting": "[3]; [7]", "result": "over 2 fold"},
      {"measurement": "Vmax relative to SMARCA4-WT protein", "setting": "[3]; [7]", "result": "over 2 fold"}
    ]}
  ]
}
